2 molecules from ChEMBL document CHEMBL5725509, “Substituted pyrido[3,4-b]pyrazines as GPR6 modulators” (2017) can be followed below.

Broadly, the IC50 is the concentration at which inhibition is half-maximal.

This assay has as its target G-protein coupled receptor 6 (Homo sapiens, UniProt P46095). Put plainly: cAMP assay A.1: This cell based assay measures the ability of compounds to inhibit the constitutive cAMP activity of GPR6 receptor expressed in CHO-K1 cells. CHO cells were stably expressed with GPR6 receptor, whose expression is controlled by a tetracycline inducable element. The cells were cultured in medium containing F12K, 10% FBS, 1% Penn/Strep, 200 ug/mL Hygromycin. GPR6 receptor expression was induced for 20 hrs with 1 μg/ml doxycycline (sigma D9891) in growth media. After addition of doxycycline cells were plated at a density of 250-500 cells per well in half-volume black clear bottom plates (Costar) and place in an incubator (37°, 5% C(O)2) for 20 hours prior to cAMP assays. Culture media was removed from cells and they were washed with 50 μL of Ringer's Buffer (MgCl2 0.047 mg/mL, NaH2PO4 0.18 mg/mL, Na2HPO4 0.1 mg/mL, KCl 0.34 mg/mL, NaHC(O)3 1.26 mg/mL, D-glucose 1.8 mg/mL, NaCl 7 mg/mL; pH=7.4). Compounds suspended in DMSO were diluted in Ringer's Buffer containing 0.5% fatty acid free BSA and incubated on cells for 45 min at 37° and 5% C(O)2. After incubation cells were incubated for 10 min at room temp with Eu-cAMP tracer solution from a Perkin Elmer Lance HTRF UltracAMP assay kit (TRF0264). Then ULight-anti-cAMP solution from the Lance HTRF kit was added and incubated on a shaker at room temp for 1 hour prior to HTRF detection in a BMG PolarStar Omega. […]. (In general: cAMP levels reflect the balance of adenylyl cyclase and phosphodiesterase activity.)

Chain of G-protein coupled receptor 6 (P46095 whole entry): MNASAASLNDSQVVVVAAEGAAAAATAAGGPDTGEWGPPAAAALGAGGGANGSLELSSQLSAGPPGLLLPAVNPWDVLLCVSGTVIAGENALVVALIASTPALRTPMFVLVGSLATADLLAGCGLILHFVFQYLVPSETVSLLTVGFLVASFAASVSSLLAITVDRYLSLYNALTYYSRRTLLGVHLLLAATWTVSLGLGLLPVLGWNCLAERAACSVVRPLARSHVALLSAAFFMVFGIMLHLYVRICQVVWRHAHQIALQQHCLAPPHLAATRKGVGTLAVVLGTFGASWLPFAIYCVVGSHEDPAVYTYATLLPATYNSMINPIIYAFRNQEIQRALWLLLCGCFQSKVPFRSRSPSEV

`CN1CCc2nc(N3CCC(Oc4ccc(F)cc4F)CC3)c(NCC(F)F)nc2C1`: the IC50 is over 1000 µM.
As to `CC(=O)N1CCc2nc(N3CCN(C(=O)OC(C)(C)C)CC3)c(NC(C)C)nc2C1`, the IC50 is over 1000 µM.
